Laboratory results: patent publication US20250280826A1, “PLANT GROWTH PROMOTER” (KAO CORPORATION, priority 2022, published 2025)

Legend:
soybean [1] = experiment: Example 3: soybean nodule activity, mixing ratio of ascorbic acid and antioxidant; format: in vivo; conditions: ascorbic acid dissolved in tap water, in comparison to no application
Experimental: (§1) The items of the preparation of soil and sowing, the inoculation of Rhizobium, the exudate collection method for measuring the amount of ureide nitrogen, which serves as an indicator of nodule activity, the experimental operation before quantification of exudate, the equipment and measurement method used for quantification of the amount of ureide nitrogen, and the standard products used and quantification were the same as those in Example 2, and the cultivation of soybean was carried out for 21 days.
The cultivation was carried out in an artificial weather apparatus (LPH-411SP, Nippon Medical & Chemical Instruments Co., Ltd.), with the light condition of a light period (light intensity from […]) of 16 hours/a dark period of 8 hours, the temperature of 30° C. for the light period/25° C. for the dark period, and a humidity of 50%. On day 7 after sowing, the plants were thinned so as to be one plant per pot. Watering was carried out by adding water to a vat placed under the pot so that about 5 cm of the lower part of the pot would be submerged after the vat had run out of water.
The spraying solutions shown in Table 4 below were prepared in the same manner as in Example 2, and 6.7 mL of each was sprayed per plant using a mister an day 14 after sowing. Foliar spray was carried out only once, and 7 types of test plots were examined (Table 4). […]

soybean [2] = experiment: Example 5: soybean nodule activity after application of high concentration of ascorbic acid; format: in vivo; conditions: ascorbic acid dissolved in deionized water in comparison to tap water, regardless of amount of water
Text: as §1, with “Rhizobium, the cultivation conditions, the exudate collection” for “Rhizobium, the exudate collection”, “of ureide nitrogen as an” for “of ureide nitrogen, which serves as an”, “in Example 3, and the” for “in Example 2, and the”
Foliar spray treatment was carried out on day 14 after sowing. In addition to the reagents mentioned in Examples 2, 3, and 4, polyethylene glycol monolaurate and a glycerol fatty acid ester were used as nonionic surfactants. The reagents were dissolved in tap water or deionized water to prepare spraying solutions. Foliar spray was carried out only once. Assuming aerial spraying, 8 types of test plots containing a high concentration of ascorbic acid were examined (Table 6). In the test plots 2 and 3, 6.7 mL of each per plant was sprayed using a mister, and in the test plots 4 to 8, 0.125 mL of each per plant was sprayed.
The mean and the standard deviation were calculated from the data of four repeats, excluding the highest and the lowest values from the six repeats in each test plot.

azuki bean = experiment: Example 6: initial growth index in azuki bean (above-/below-ground part dry weight); format: in vivo; conditions: ascorbic acid 1 500 mass ppm, tap water vs deionized water
Experimental: Medium-term fertilizer effect type culture soil (Takii hydrous cell medium-term fertilizer effect type, Takii & Co., Ltd.) and vermiculite grains (Akagi-Engei Co., Ltd.) were mixed at a volume ratio of 1:1, and the soil was placed in a polypot (diameter: 10.5 cm, height: 9 cm). The azuki bean seeds used were “Tamba Dainagon Azuki Beans” (purchased from Takii & Co., Ltd.). After tap water was supplied in an amount of 250 mL per pot, 2 seeds per pot were each sown at a depth of from about 1 to 2 cm from the soil surface. The number of repeats in each test plot was 6 (n=6). […]
Spraying solutions were prepared, and 6.7 mL of each per plant was sprayed only once using a mister on day 21 after sowing. […] The evaluated test plots 1 to 4 are as follows.
On day 28 after sowing, the plant body was dried at 90° C. for 24 hours, and the above-ground part dry weight and below-ground part dry weight of the plant body were then measured. • 1 plot: control (no application) • 2 plot: foliar spray of 1 500 mass ppm ascorbic acid (dissolved in tap water) • 3 plot: foliar spray of 1 500 mass ppm ascorbic acid (dissolved in deionized water) • 4 plot: foliar spray of 1 500 mass ppm ascorbic acid+1 mass ppm BHT+50 mass ppm isobutyl alcohol+350 mass ppm sorbitan monolaurate (dissolved in tap water)

legume crops = conditions: total of three foliar sprays, ascorbic acid solution dissolved in distilled water, vegetative or reproductive growth stage; cited from earlier work

O=C1O[C@H]([C@@H](O)CO)C(O)=C1O [ascorbic acid, (R)-3,4-dihydroxy-5-((S)-1,2-dihydroxyethyl)furan-2(5H)-one]
nodule activity (allantoin and allantoic acid in exudate) (soybean [1]): did not change or rather decreased
nodule activity (allantoic acid in exudate) (soybean [2]): increased
effects on the initial growth index (azuki bean): varied in accordance with the water quality
increase the yield (legume crops): up to 30%
